Assay results reported in the OligoGym collection.
HELM strings list units from the 5' end as sugar, base in round brackets, then linkage (d deoxyribose, r ribose, m 2'-O-methyl, p phosphodiester). Strings are as the collection lists them, not checked against the first reports. ss, as = sense and antisense strand; [una] = unlocked nucleic acid

Details: siRNA
Further: test system not given here.

Substance	target mRNA knockdown [%]
RNA1{r(G)p.r(U)p.r(A)p.r(U)p.r(G)p.r(A)p.r(C)p.r(C)p.r(G)p.r(A)p.r(C)p.r(U)p.r(A)p.r(C)p.r(G)p.r(C)p.r(G)p.r(U)p.r(A)p.r(T)p.r(T)}|RNA2{r(U)p.r(U)p.r(C)p.[una](A)p.r(G)p.r(U)p.r(G)p.r(U)p.r(G)p.r(A)p.r(U)p.r(G)p.r(A)p.r(C)p.r(A)p.r(C)p.r(U)p.r(U)p.r(G)p.r(T)p.r(T)}$$$RNA1{StrandType:ss}|RNA2{StrandType:as}$	94
RNA1{r(G)p.r(U)p.r(A)p.r(U)p.r(G)p.r(A)p.r(C)p.r(C)p.r(G)p.r(A)p.r(C)p.r(U)p.r(A)p.r(C)p.r(G)p.r(C)p.r(G)p.r(U)p.r(A)p.r(T)p.r(T)}|RNA2{r(U)p.r(U)p.r(C)p.r(A)p.[una](G)p.r(U)p.r(G)p.r(U)p.r(G)p.r(A)p.r(U)p.r(G)p.r(A)p.r(C)p.r(A)p.r(C)p.r(U)p.r(U)p.r(G)p.r(T)p.r(T)}$$$RNA1{StrandType:ss}|RNA2{StrandType:as}$	92
RNA1{r(G)p.r(U)p.r(A)p.r(U)p.r(G)p.r(A)p.r(C)p.r(C)p.r(G)p.r(A)p.r(C)p.r(U)p.r(A)p.r(C)p.r(G)p.r(C)p.r(G)p.r(U)p.r(A)p.r(T)p.r(T)}|RNA2{r(U)p.r(U)p.r(C)p.r(A)p.r(G)p.[una](U)p.r(G)p.r(U)p.r(G)p.r(A)p.r(U)p.r(G)p.r(A)p.r(C)p.r(A)p.r(C)p.r(U)p.r(U)p.r(G)p.r(T)p.r(T)}$$$RNA1{StrandType:ss}|RNA2{StrandType:as}$	78
RNA1{r(G)p.r(U)p.r(A)p.r(U)p.r(G)p.r(A)p.r(C)p.r(C)p.r(G)p.r(A)p.r(C)p.r(U)p.r(A)p.r(C)p.r(G)p.r(C)p.r(G)p.r(U)p.r(A)p.r(T)p.r(T)}|RNA2{r(U)p.r(U)p.r(C)p.r(A)p.r(G)p.r(U)p.[una](G)p.r(U)p.r(G)p.r(A)p.r(U)p.r(G)p.r(A)p.r(C)p.r(A)p.r(C)p.r(U)p.r(U)p.r(G)p.r(T)p.r(T)}$$$RNA1{StrandType:ss}|RNA2{StrandType:as}$	86
RNA1{r(G)p.r(U)p.r(A)p.r(U)p.r(G)p.r(A)p.r(C)p.r(C)p.r(G)p.r(A)p.r(C)p.r(U)p.r(A)p.r(C)p.r(G)p.r(C)p.r(G)p.r(U)p.r(A)p.r(T)p.r(T)}|RNA2{r(U)p.r(U)p.r(C)p.r(A)p.r(G)p.r(U)p.r(G)p.[una](U)p.r(G)p.r(A)p.r(U)p.r(G)p.r(A)p.r(C)p.r(A)p.r(C)p.r(U)p.r(U)p.r(G)p.r(T)p.r(T)}$$$RNA1{StrandType:ss}|RNA2{StrandType:as}$	90
RNA1{r(G)p.r(U)p.r(A)p.r(U)p.r(G)p.r(A)p.r(C)p.r(C)p.r(G)p.r(A)p.r(C)p.r(U)p.r(A)p.r(C)p.r(G)p.r(C)p.r(G)p.r(U)p.r(A)p.r(T)p.r(T)}|RNA2{r(U)p.r(U)p.r(C)p.r(A)p.r(G)p.r(U)p.r(G)p.r(U)p.[una](G)p.r(A)p.r(U)p.r(G)p.r(A)p.r(C)p.r(A)p.r(C)p.r(U)p.r(U)p.r(G)p.r(T)p.r(T)}$$$RNA1{StrandType:ss}|RNA2{StrandType:as}$	89
RNA1{r(G)p.r(U)p.r(A)p.r(U)p.r(G)p.r(A)p.r(C)p.r(C)p.r(G)p.r(A)p.r(C)p.r(U)p.r(A)p.r(C)p.r(G)p.r(C)p.r(G)p.r(U)p.r(A)p.r(T)p.r(T)}|RNA2{r(U)p.r(U)p.r(C)p.r(A)p.r(G)p.r(U)p.r(G)p.r(U)p.r(G)p.[una](A)p.r(U)p.r(G)p.r(A)p.r(C)p.r(A)p.r(C)p.r(U)p.r(U)p.r(G)p.r(T)p.r(T)}$$$RNA1{StrandType:ss}|RNA2{StrandType:as}$	23
RNA1{r(G)p.r(U)p.r(A)p.r(U)p.r(G)p.r(A)p.r(C)p.r(C)p.r(G)p.r(A)p.r(C)p.r(U)p.r(A)p.r(C)p.r(G)p.r(C)p.r(G)p.r(U)p.r(A)p.r(T)p.r(T)}|RNA2{r(U)p.r(U)p.r(C)p.r(A)p.r(G)p.r(U)p.r(G)p.r(U)p.r(G)p.r(A)p.[una](U)p.r(G)p.r(A)p.r(C)p.r(A)p.r(C)p.r(U)p.r(U)p.r(G)p.r(T)p.r(T)}$$$RNA1{StrandType:ss}|RNA2{StrandType:as}$	0
